According to US20260258032A1, “TYROSINE KINASE 2 INHIBITORS AND USES THEREOF” (BIOGEN MA INC., priority 2022, published 2026):
Where a name gives a salt, the structure may show the parent alone.

Assays:
[1] = test system: Tyk2 kinase activity on STAT4; test: pSTAT4 cell assay (MSD, NK92 cells); format: cell-based; conditions: compounds 1 hr, stimulated 15 minutes
Outline: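 IC50 values come from 4-parameter logistic fits of normalized percent activity. Phospho-STAT was read by MSD (anti-STAT4 antibodies) in NK92 lysates after a 15 min stimulation with 30 ng/mL IL2. The serum-starved cells had been given compound for 1 h (10 points, four-fold, top 10 μM).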

JH2 domain of human Tyk2 = molecular target: T1, JH2 domain of human Tyk2 (Homo sapiens, UniProt P29597); test: JH2 biochemical assay (TR-FRET probe displacement); format: binding; conditions: JH2 biochemical assay
T1 construct: 10×His-tagged TYK2 JH2 domain (amino acid 575-876)
T1 sequence (P29597 575-876): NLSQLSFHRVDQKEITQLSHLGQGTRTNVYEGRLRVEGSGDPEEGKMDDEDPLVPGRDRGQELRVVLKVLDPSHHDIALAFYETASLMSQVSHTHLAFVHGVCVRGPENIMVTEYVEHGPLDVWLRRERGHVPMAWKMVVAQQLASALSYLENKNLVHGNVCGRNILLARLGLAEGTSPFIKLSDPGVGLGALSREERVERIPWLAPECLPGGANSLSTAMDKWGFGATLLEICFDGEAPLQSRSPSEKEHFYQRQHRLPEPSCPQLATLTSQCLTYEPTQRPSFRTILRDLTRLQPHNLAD
Outline: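 A probe-displacement TR-FRET readout: compounds, tested in 3-fold, 10-point dilutions starting at […], compete with 2 nM tracer for 2 nM His-tagged JH2 (residues 575-876) detected by 0.1 nM Tb-anti-His over 60 min. IC50 comes from 4-parameter fits of normalized 520/495 nm ratios.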

SMILES	IC50 [1] [nM]	IC50 (JH2 domain of human Tyk2) [nM]
CC(=O)Nc1cc2c(cn1)C1(CC1)CN2c1cc(C)cc(OC2CC(C#N)C2)n1 (stereo not drawn) [Example 344, N-(1′-(6-(3-cyanocyclobutoxy)-4-methylpyridin-2-yl)-1′,2′-dihydrospiro[cyclopropane-1,3′-pyrrolo[3,2-c]pyridin]-6′-yl)acetamide trifluoroacetate]	≥ 1000	100 to 1000
CC(=O)Nc1cc2c(cn1)C1(CC1)CN2c1cc([C@H]2C[C@H](C#N)C2)nc(C(C)(F)F)n1 [Example 75, N-(1′-(6-((1r,3r)-3-cyanocyclobutyl)-2-(1,1-difluoroethyl)pyrimidin-4-yl)-1′,2′-dihydrospiro[cyclopropane-1,3′-pyrrolo[3,2-c]pyridin]-6′-yl)acetamide or N-(1′-(6-((1s,3s)-3-cyanocyclobutyl)-2-(1,1-difluoroethyl)pyrimidin-4-yl)-1′,2′-dihydrospiro[cyclopropane-1,3′-pyrrolo[3,2-c]pyridin]-6′-yl)acetamide]	100 to 1000	≤ 10
CC(=O)Nc1cc2c(cn1)C1(CC1)CN2c1cc(C)nc(-c2cnn(C(C)C)c2)n1 [Example 249, N-(1′-(2-(1-isopropyl-1H-pyrazol-4-yl)-6-methylpyrimidin-4-yl)-1′,2′-dihydrospiro[cyclopropane-1,3′-pyrrolo[3,2-c]pyridin]-6′-yl)acetamide]	≥ 1000	10 to 100
CC(=O)Nc1cc2c(cn1)C1(CC1)CN2c1cc([C@@H]2C[C@H]2C#N)nc(C(C)(F)F)n1 (racemic) [Example 72, trans-rac-N-(1′-(6-(2-cyanocyclopropyl)-2-(1,1-difluoroethyl)pyrimidin-4-yl)-1′,2′-dihydrospiro[cyclopropane-1,3′-pyrrolo[3,2-c]pyridin]-6′-yl)acetamide or cis-rac-N-(1′-(6-(2-cyanocyclopropyl)-2-(1,1-difluoroethyl)pyrimidin-4-yl)-1′,2′-dihydrospiro[cyclopropane-1,3′-pyrrolo[3,2-c]pyridin]-6′-yl)acetamide]	100 to 1000	≤ 10
CC(=O)Nc1cc2c(cn1)C1(CC1)CN2c1cc(C)cc(OC2CC(F)C2)n1 (stereo not drawn) [Example 348, N-(1′-(6-(3-fluorocyclobutoxy)-4-methylpyridin-2-yl)-1′,2′-dihydrospiro[cyclopropane-1,3′-pyrrolo[3,2-c]pyridin]-6′-yl)acetamide trifluoroacetate]	≥ 1000	100 to 1000
CC(=O)Nc1cc2c(cn1)C1(CC1)CN2c1cc(CN2CCC2)nc(C(C)(F)F)n1 [Example 299, N-(1′-(6-(azetidin-1-ylmethyl)-2-(1,1-difluoroethyl)pyrimidin-4-yl)-1′,2′-dihydrospiro[cyclopropane-1,3′-pyrrolo[3,2-c]pyridin]-6′-yl)acetamide]	100 to 1000	10 to 100
COC(C)(C)CNc1cc(N2CC3(CC3)c3cnc(NC(C)=O)cc32)nc(C(C)(F)F)n1 [Example 158, N-(1′-(2-(1,1-difluoroethyl)-6-((2-methoxy-2-methylpropyl)amino)pyrimidin-4-yl)-1′,2′-dihydrospiro[cyclopropane-1,3′-pyrrolo[3,2-c]pyridin]-6′-yl)acetamide trifluoroacetate]	≤ 10	≤ 10
COc1ccc(N2CC3(CC3)c3cnc(NC(C)=O)cc32)nc1C(C)(F)F [Example 8, N-(1′-(6-(1,1-difluoroethyl)-5-methoxypyridin-2-yl)-1′,2′-dihydrospiro[cyclopropane-1,3′-pyrrolo[3,2-c]pyridin]-6′-yl)acetamide]	100 to 1000	≤ 10
CC(=O)Nc1cc2c(cn1)C1(CC1)CN2c1cc(C)nc(N2CCCCC2)n1 [Example 113, N-(1′-(6-methyl-2-(piperidin-1-yl)pyrimidin-4-yl)-1′,2′-dihydrospiro[cyclopropane-1,3′-pyrrolo[3,2-c]pyridin]-6′-yl)acetamide]	≥ 1000	10 to 100
